Here are results for six compounds from article PMC8976278, “Hesperidin identified from Citrus extracts potently inhibits HCV genotype 3a NS3 protease” (BMC Complementary Medicine and Therapies, 2022).

Values after ≈ are worked out from the molar mass of the structure shown. Read-outs that look alike come from different tables or passages of the source.

Test [1] has as its target NS3-NS4A protease of HCV genotype-3a (Hepatitis C virus genotype 3a, UniProt Q81258). The test is described as follows: FRET assay of NS3-NS4A protease activity with depsipeptide substrate. The class given is biochemical. Set-up: Activity, Slope trial 1st / Activity, Slope trial 2nd / Activity, Slope trial 3rd: unit not given here. On the procedure: For measuring the protease activity, a FRET assay was performed using a depsipeptide substrate, Ac-Asp-Glu-Asp-(EDANS)-Glu-Glu-Abu-ψ-[COO]-Ala-Ser-Lys(DABCYL)-NH2 (AnaSpec,US). The fluorescence signal generated upon cleavage of the depsipeptide substrate by the NS3 protease domain was continuously recorded using excitation and emission wavelengths of 355 nm and 510 nm, respectively, and a fluorescence microplate reader (TECAN, US). In the case of the full-length NS3 protease, the reaction buffer (50 mM HEPES, pH 7.5, 0.4% Triton X-100, 10 mM DTT (Thermo Fisher Scientific), 3% DMSO (Thermo Fisher Scientific), and 40% glycerol) was pre-incubated (at 30 °C for 10 min) with 25 µM of a synthetic peptide, […] (purchased from LifeTein LLC, US), representing the core of the NS4A cofactor required for the catalytic activity. For the FRET assay, 1 nM of the full-length NS3 protease was used. In the case of NS3-NS4A, the protein (0.5 nM) was incubated in the reaction buffer at 30 °C for 10 min (without the synthetic peptide). The reaction was initiated by the addition of the substrate (10 µL) in a two-fold serial dilution up to a concentration of 2 µM. Reaction wells without the substrate were used as negative controls. For correction of the inner filter effect, a previously described procedure was followed. Kinetic parameters (such as kcat, Km, and kcat/Km) were calculated using the Michaelis–Menten equation. Data were fitted to the equation by non-linear regression using the GraphPad Prism® software (version 7.04, GraphPad Prism®, Inc., USA).
For validation of the FRET assay, commercially available inhibitors (asuanaprevir, ciluprevir, danoprevir, and telaprevir (purchased from AdooQ® Bioscience, US) were used to inhibit the activity of the target enzyme (NS3-NS4A protease of HCV genotype-3a), as described previously. Briefly, 1 µM of the depsipeptide substrate was added to the protein, pre-incubated with a given inhibitor, and fluorescence measurements were recorded for 20, 30, or 60 min using 355 nm and 510 nm as excitation and emission wavelengths, respectively. The IC50 value, representing the half-maximal inhibitory concentration, of each commercial inhibitor was calculated using the GraphPad Prism® software (version 7.04, GraphPad Prism®, Inc., USA). The experiment was performed in triplicates, and the average value obtained was considered as the IC50 value.
Reaction mixtures (300 µL) were prepared in the assay buffer (50 mM HEPES, pH 7.5, 0.4% Triton X-100, 10 mM DTT, and 40% glycerol). For initial screening, 3.33 mg of the plant extract was dissolved in 1 mL DMSO, and was transferred to the reaction buffer such that the final concentration of DMSO was 3%. The reaction was initiated by adding 0.5 nM NS3-NS4A protease, and the released RET S1 FRET substrate was monitored using a fluorescence microplate reader (TECAN). Reaction mixtures (also containing 3% DMSO) without any plant extract were used for recording blank measurements. The background fluorescence contributed by the plant extract was also recorded. For calculation of the calibration curve, spiking with known amounts (0.25 µM, 0.5 µM, 1 µM, and 2 µM) of the free FRET substrate (RET S1) was made while keeping the reaction mixture at the same volume, containing all the constituents (the plant extract, the assay buffer as well as the enzyme). Slope of the curve was correlated with that obtained from free FRET substrate concentrations without any plant extract as well as the substrate. Initial reaction rates were calculated, and the percentage (%) enzyme inhibition was calculated using the equation: 100 x [a-b/a] where “a” refers to the fluorescence value generated by the reaction mixture only (without the plant extract) and “b” is the solution fluorescence in the presence of the plant extract. […]

Test [2] relates to HCV NS3 protease. Also noted: method as in earlier work. Conditions: ref [49], [50]; Table S3 ref [1], [2]; cited from earlier work.
Test [3] deals with NS3 protease domain of HCV genotype 3a fused to the cognate NS4A cofactor (NS3-NS4A) (hepatitis C virus genotype 3a).
[4] abbreviates: FRET assay validation, 1 µM depsipeptide substrate, triplicates, read-out: IC50 value (commercial inhibitors) (converted).

Sequence of NS3-NS4A protease of HCV genotype-3a (Q81258 1033-1213, other chains not shown): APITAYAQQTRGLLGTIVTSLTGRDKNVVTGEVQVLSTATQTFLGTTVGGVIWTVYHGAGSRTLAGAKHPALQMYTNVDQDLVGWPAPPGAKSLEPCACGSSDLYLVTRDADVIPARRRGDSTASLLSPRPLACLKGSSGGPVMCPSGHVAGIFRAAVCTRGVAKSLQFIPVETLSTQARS

`C=C[C@@H]1C[C@]1(NC(=O)[C@@H]1C[C@@H](Oc2ncc(OC)c3ccc(Cl)cc23)CN1C(=O)[C@@H](NC(=O)OC(C)(C)C)C(C)(C)C)C(=O)NS(=O)(=O)C1CC1` [Asunaprevir]: in test [1] (setting [4]), the IC50 was 68.3 nM.

For the compound `COc1ccc2c(O[C@@H]3C[C@H]4C(=O)N[C@]5(C(=O)O)C[C@H]5/C=C\CCCCC[C@H](NC(=O)OC5CCCC5)C(=O)N4C3)cc(-c3csc(NC(C)C)n3)nc2c1` [Ciluprevir], the IC50 in test [1] (setting [4]) is 53.2 nM.

For `CC(C)(C)OC(=O)N[C@H]1CCCCC/C=C\[C@@H]2C[C@@]2(C(=O)NS(=O)(=O)C2CC2)NC(=O)[C@@H]2C[C@@H](OC(=O)N3Cc4cccc(F)c4C3)CN2C1=O` [Danoprevir], in test [1] (setting [4]), the IC50 was 25.1 nM. Further, the “Activity, Slope trial 1st” value in test [1] (inhibitor conc. 1.3717 nM) amounted to 1.677; in test [1] (inhibitor conc. 4.1152 nM) it was 1.449; in test [1] (inhibitor conc. 12.3456 nM), 0.991; in test [1] (inhibitor conc. 37.037 nM), 0.450; in test [1] (inhibitor conc. 111.1111 nM) it was 0.196; in test [1] (inhibitor conc. 333.3333 nM), 0. For the same compound, the “Activity, Slope trial 1st” value in test [1] (inhibitor conc. 1000 nM) was found to be 0. Besides, the “Activity, Slope trial 2nd” value in test [1] (inhibitor conc. 1.3717 nM) is reported as 2.153; in test [1] (inhibitor conc. 4.1152 nM), 1.834; in test [1] (inhibitor conc. 12.3456 nM), 0.979; in test [1] (inhibitor conc. 37.037 nM), 0.460; in test [1] (inhibitor conc. 111.1111 nM), 0.174; in test [1] (inhibitor conc. 333.3333 nM), 0.039. For the same compound, in test [1] (inhibitor conc. 1000 nM), the “Activity, Slope trial 2nd” value was found to be 0. Besides, the “Activity, Slope trial 3rd” value is reported as 9.123 in test [1] (inhibitor conc. 1.3717 nM); 9.072 in test [1] (inhibitor conc. 4.1152 nM); 5.934 in test [1] (inhibitor conc. 12.3456 nM); 2.283 in test [1] (inhibitor conc. 37.037 nM); 0.757 in test [1] (inhibitor conc. 111.1111 nM); 0.003151 in test [1] (inhibitor conc. 333.3333 nM). Moreover, the “Activity, Slope trial 3rd” value in test [1] (inhibitor conc. 1000 nM) is listed as 0. The “Average Slope” value was determined as 4.31 in test [1] (inhibitor conc. 1.3717 nM); 4.11 in test [1] (inhibitor conc. 4.1152 nM); 2.63 in test [1] (inhibitor conc. 12.3456 nM); 1.06 in test [1] (inhibitor conc. 37.037 nM); 0.37 in test [1] (inhibitor conc. 111.1111 nM); 0.01 in test [1] (inhibitor conc. 333.3333 nM). The “Average Slope” value in test [1] (inhibitor conc. 1000 nM) worked out at 0. Moreover, the “IC50 value [reported in the literature]” value in test [2] is recorded as 0.0146 µg/mL (≈ 0.0199 µM).

In the case of `O=c1oc2c(O)c(O)cc3c(=O)oc4c(O)c(O)cc1c4c23` [Ellagic acid], the IC50 in test [1] (commercially obtained pure compound, hesperidin 1230 to 1.67 µg/mL, read-out: IC50 value (pure natural compound) (converted)) was 98000 nM.

As to `CCC[C@H](NC(=O)[C@@H]1[C@H]2CCC[C@H]2CN1C(=O)[C@@H](NC(=O)[C@@H](NC(=O)c1cnccn1)C1CCCCC1)C(C)(C)C)C(=O)C(=O)NC1CC1` [Telaprevir], the IC50 in test [1] (setting [4]) was 69.9 nM. The “Activity, Slope trial 1st” value in test [1] (inhibitor conc. 1.3717 nM) is 4.176; in test [1] (inhibitor conc. 4.1152 nM), 4.77; in test [1] (inhibitor conc. 12.3456 nM) it was 3.041; in test [1] (inhibitor conc. 37.037 nM) it was 3.796; in test [1] (inhibitor conc. 111.1111 nM) it was 1.774; in test [1] (inhibitor conc. 333.3333 nM) it was 0.5776. Moreover, the “Activity, Slope trial 1st” value in test [1] (inhibitor conc. 1000 nM) is 1.246. Besides, the “Activity, Slope trial 2nd” value in test [1] (inhibitor conc. 1.3717 nM) is reported as 2.087; in test [1] (inhibitor conc. 4.1152 nM), 3.604; in test [1] (inhibitor conc. 12.3456 nM) it was 1.613; in test [1] (inhibitor conc. 37.037 nM) it was 1.828; in test [1] (inhibitor conc. 111.1111 nM), 1.116; in test [1] (inhibitor conc. 333.3333 nM), 0.3406. For the same compound, the “Activity, Slope trial 2nd” value in test [1] (inhibitor conc. 1000 nM) is reported as 0.081. The “Activity, Slope trial 3rd” value in test [1] (inhibitor conc. 1.3717 nM) came out at 2.395; in test [1] (inhibitor conc. 4.1152 nM) it was 1.309; in test [1] (inhibitor conc. 12.3456 nM), 2.131; in test [1] (inhibitor conc. 37.037 nM), 1.004; in test [1] (inhibitor conc. 111.1111 nM) it was 0.627; in test [1] (inhibitor conc. 333.3333 nM), 0.163. Further, the “Activity, Slope trial 3rd” value in test [1] (inhibitor conc. 1000 nM) was determined as 0. Moreover, the “Average Slope” value in test [1] (inhibitor conc. 1.3717 nM) is given as 2.88; in test [1] (inhibitor conc. 4.1152 nM), 3.22; in test [1] (inhibitor conc. 12.3456 nM), 2.26; in test [1] (inhibitor conc. 37.037 nM) it was 2.20; in test [1] (inhibitor conc. 111.1111 nM) it was 1.17; in test [1] (inhibitor conc. 333.3333 nM), 0.36. For the same compound, the “Average Slope” value in test [1] (inhibitor conc. 1000 nM) is 0.44. Also, the “IC50 value [reported in the literature]” value in test [2] is given as 0.0387 µg/mL (≈ 0.0569 µM).

As to “depsipeptide substrate Ac-Asp-Glu-Asp-(EDANS)-Glu-Glu-Abu-ψ-[COO]-Ala-Ser-Lys(DABCYL)-NH2”, in test [3], the Km of cleavage of the depsipeptide substrate by NS3-NS4A (0.5 nM) in the FRET protease assay, Michaelis-Menten fit is 8.79 µM.
